ChEMBL document CHEMBL1201862, “PubChem BioAssay data set” (2004)
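Exposure lasted 48 hours, with cells grown in 96-well plates and compounds tested at five concentrations. GI50 marks 50% less growth.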 Activity calls are given as the source filed them. Rule as the data show it: active = GI50 up to about 1.1 µM and inactive = higher.

Experiments:
Assay in all cases: growth of human tumour cells (NCI), 48 h
T47D = system: T47D
U-251 = system: U-251
SN12C = system: SN12C
OVCAR-8 = system: OVCAR-8
UACC-257 = system: UACC-257
DU-145 = system: DU-145
OVCAR-5 = system: OVCAR-5
SF-539 = system: SF-539
SK-MEL-2 = system: SK-MEL-2
SR = system: SR
MOLT-4 = system: MOLT-4
MCF7 = system: MCF7
UACC-62 = system: UACC-62
OVCAR-4 = system: OVCAR-4
SK-OV-3 = system: SK-OV-3
Malme-3M = system: Malme-3M
SF-268 = system: SF-268
CCRF-CEM = system: CCRF-CEM
SW-620 = system: SW-620
COLO 205 = system: COLO 205

Measured: GI50

Cc1nn(C(=O)c2ccc(Cl)cc2)c2c1C(c1ccc(O)cc1)SC(=N)N2 (stereo not given)
inactive: T47D > 10 µM | U-251 > 10 µM | SN12C > 10 µM | OVCAR-8 > 10 µM | UACC-257 > 10 µM | DU-145 > 10 µM | OVCAR-5 > 10 µM | SF-539 > 10 µM | SK-MEL-2 > 10 µM | SR > 10 µM | MOLT-4 > 10 µM | MCF7 > 10 µM | UACC-62 > 10 µM | OVCAR-4 > 10 µM | SK-OV-3 > 10 µM | Malme-3M > 10 µM | SF-268 > 10 µM | CCRF-CEM > 10 µM | SW-620 > 10 µM | COLO 205 > 10 µM

OC1(c2ccc(Cl)cc2)c2ccc(CN3CCCC3)cc2C2=NCCN21 (stereo not given)
inactive: T47D 18.5 µM | U-251 14 µM | SN12C 16.4 µM | OVCAR-8 15.4 µM | UACC-257 12.5 µM | DU-145 16 µM | OVCAR-5 16.7 µM | SF-539 13.2 µM | SK-MEL-2 19 µM | SR 10.4 µM | MOLT-4 11.6 µM | MCF7 16.8 µM | UACC-62 14.7 µM | OVCAR-4 12.3 µM | SK-OV-3 14.2 µM | Malme-3M 11 µM | SF-268 14.8 µM | CCRF-CEM 12.2 µM | SW-620 13.3 µM | COLO 205 10.8 µM

Nc1ccc(S(=O)(=O)Nc2nc3ccccc3nc2N2CCCCC2)cc1
inactive: T47D 41.6 µM | U-251 68.2 µM | SN12C 82 µM | OVCAR-8 61.8 µM | UACC-257 > 100 µM | DU-145 > 100 µM | OVCAR-5 > 100 µM | SF-539 > 100 µM | SK-MEL-2 88.1 µM | SR 60.5 µM | MOLT-4 27.5 µM | MCF7 84.3 µM | UACC-62 > 100 µM | OVCAR-4 24.2 µM | SK-OV-3 > 100 µM | Malme-3M 71.9 µM | SF-268 > 100 µM | CCRF-CEM 48.5 µM | SW-620 59 µM | COLO 205 64.9 µM

CC1(c2cccc(C3CCC4(C=CC3=O)OCCO4)c2)OCCO1 (stereo not given)
inactive: T47D 8.49 µM | U-251 18.1 µM | SN12C 14.5 µM | OVCAR-8 13.5 µM | UACC-257 9.48 µM | DU-145 17.9 µM | OVCAR-5 18.2 µM | SF-539 14.8 µM | SK-MEL-2 12.9 µM | SR 3.12 µM | MOLT-4 2.84 µM | MCF7 11 µM | UACC-62 6.52 µM | OVCAR-4 7.28 µM | SK-OV-3 30.8 µM | Malme-3M 4.71 µM | SF-268 17.3 µM | CCRF-CEM 2.49 µM | SW-620 2.9 µM | COLO 205 6.14 µM

O=C1/C(=C2\SCC(=O)N2c2ccccc2)SC(=S)N1c1ccccc1
inactive: T47D 51.2 µM | U-251 30.4 µM | SN12C 25.6 µM | OVCAR-8 41.4 µM | UACC-257 42.8 µM | DU-145 34 µM | OVCAR-5 > 100 µM | SF-539 26.4 µM | SK-MEL-2 27.3 µM | SR 12 µM | MOLT-4 17.7 µM | MCF7 36.8 µM | UACC-62 55 µM | OVCAR-4 23.8 µM | SK-OV-3 23.6 µM | Malme-3M 38.2 µM | SF-268 41.8 µM | CCRF-CEM 37.2 µM | SW-620 45.1 µM | COLO 205 67 µM

CCOC(=O)Nn1c(C)nnc1-c1ccccc1
inactive: T47D > 100 µM | U-251 > 100 µM | SN12C > 100 µM | OVCAR-8 > 100 µM | UACC-257 > 100 µM | DU-145 > 100 µM | OVCAR-5 > 100 µM | SF-539 > 100 µM | SK-MEL-2 > 100 µM | SR > 100 µM | MOLT-4 > 100 µM | MCF7 > 100 µM | UACC-62 > 100 µM | OVCAR-4 > 100 µM | SK-OV-3 61.7 µM | Malme-3M > 100 µM | SF-268 > 100 µM | CCRF-CEM > 100 µM | SW-620 > 100 µM | COLO 205 > 100 µM

CC(C)(C)NC1=NC(C(F)(F)F)(C(F)(F)F)NC(=O)N1
inactive: T47D 28.3 µM | U-251 70.3 µM | SN12C 54.7 µM | OVCAR-8 80.4 µM | UACC-257 54.2 µM | DU-145 > 100 µM | OVCAR-5 > 100 µM | SF-539 > 100 µM | SK-MEL-2 65.2 µM | SR 37 µM | MOLT-4 30.2 µM | MCF7 37.8 µM | UACC-62 54.6 µM | OVCAR-4 36.3 µM | SK-OV-3 > 100 µM | Malme-3M 34.4 µM | SF-268 > 100 µM | CCRF-CEM 31.2 µM | SW-620 > 100 µM | COLO 205 > 10 µM
